In patent publication US3975535A, “Anti-allergic-3-carboxy-isocoumarin compositions and methods of use” (Beecham Group Limited, priority 1973, dated 1976):

System: PCA responses
Experiment: Rat Passive Cutaneous Anaphylaxis (PCA) test
Assay type: in vivo, Wistar rats
Procedure: All of the compounds prepared in the preceding Examples were submitted for biological testing. The test system was the Rat Passive Cutaneous Anaphylaxis (PCA) test described below in (ii).
i. Serum containing heat labile homocytotropic antibody was raised in rats by a method similar to that used by Mota. (I. Mota Immunology 1964, 7, 681).
Male Wistar rats of 250-300g. were injected intraperitoneally with 0.5 of Bordatella pertussis vaccine (containing 4 × 10^10 dead organism per ml) and subcutaneously with 0.5ml of an emulsion of 100mg. of ovalbumin in 2ml of saline and 3ml of incomplete Freunds' adjuvant. Rats were bled by cardiac puncture on day 18, the blood was pooled and separated and serum stored at -20° and thawed only once before use.
ii. The P.C.A. test was similar to that described by Ovary and Bier (A. Ovary and O. E. Bier, Proc. Soc. Exp. Biol. Med. 1952, 81, 584) and Goose and Blair (J. Goose and AMJ. N. Blair, Immunology 1969, 16, 769).
0.1ml of each of six twofold serial dilutions of the serum in 0.9% saline were injected intradermally into separate sites on the shaved dorsal surface of 250-350g. Wistar rats. 72 hours later the animals were challenged by i.v. injection of 0.3ml of 1% ovalbumin mixed with 0.1ml of a 5% solution of pontamine sky blue dye both in isotonic saline buffered with pH. 7.2 Sorenson buffer (P.B.S.). The rats were killed after 20 minutes and the diameter of the blue wheals at the antibody injection sites were measured. The starting dilution of the serum was adjusted so that there was no response, after challenge, at the site of injection of the highest dilution and a maximum response at the lowest dilution. Typically, six twofold serial dilutions of the serum from 1/4 to 1/128 were used.
Compounds were tested for their ability to reduce the diameter of the wheals at the injection sites of dilutions of antibody which on all the controls have less than maximum response. Amounts of the compounds were administered to rats each amount to a test group of six animals at a specified time prior to intravenous challenge with ovalbumin. The diameters of the blue wheals which developed on the tests group of animals were compared with those on a control group of six animals treated in the same way as the test group, but which had not received the compound under test.
% Inhibition of P.C.A. = 100 (1 - a/b)
a = The mean of the sum of the diameters of the wheals produced in the test group of animals at those antibody sites where all the control group of animals gave less than maximum response.
b = The mean of the sum of diameters of the wheals produced in the control group of animals at those antibody sites where all the animals in the group gave less than maximum response.
The preferred method of administration was a solution of the test compound dissolved in pH 7.2 buffer and neutralised with sodium bicarbonate.

[1] = iv, time 0 mins prior to i.v. ovalbumin challenge
[2] = iv, time 60 mins prior to i.v. ovalbumin challenge
[3] = iv, time 10 mins prior to i.v. ovalbumin challenge
[4] = iv, time 30 mins prior to i.v. ovalbumin challenge
[5] = first dose pair, only one time (0) printed for the whole line
[6] = second dose pair, time not printed separately

SMILES	inhibition at 25 mg/kg [1] [%]	inhibition at 100 mg/kg [1] [%]	inhibition at 25 mg/kg [4] [%]	inhibition at 100 mg/kg [4] [%]	further results
Cc1c(C(=O)O)sc(=O)c2ccccc12 [Example 13, 4-Methyl-2-thiaisocoumarin-3-carboxylic acid]	-6	6			inhibition at 25 mg/kg [2]: 6%; inhibition at 100 mg/kg [2]: 19%
COc1cc2cc(C(=O)O)sc(=O)c2cc1OC [Example 14, 6,7-Dimethoxy-2-thiaisocoumarin-3-carboxylic acid]					inhibition at 12.5 mg/kg (iv, Dose 12.5 mg/Kg, time 10 mins prior to i.v. ovalbumin challenge): 28%; inhibition at 25 mg/kg [3]: 47%; inhibition at 50 mg/kg (iv, Dose 50 mg/Kg, time 10 mins prior to i.v. ovalbumin challenge): 79%; inhibition at 100 mg/kg [3]: 87%
COc1cc2cc(C(=O)O)oc(=O)c2cc1OC [Example 8, 6,7-Dimethoxyisocoumarin-3-carboxylic acid]	64	84	24	24	
Cc1cc2c(C)c(C(=O)O)oc(=O)c2cc1C [Example 7, 4,6,7-Trimethylisocoumarin-3-carboxylic acid monohydrate]	10	15	39	49	
COc1ccc2cc(C(=O)O)oc(=O)c2c1OC [Example 15, 7,8-Dimethoxyisocoumarin-3-carboxylic acid]			12	29	inhibition at 25 mg/kg [3]: 64%; inhibition at 100 mg/kg [3]: 63%
Cc1c(C(=O)O)[nH]c(=O)c2ccccc12 [Example 10, 4-Methylisocarbostyril-3-carboxylic acid]	12	26	-13	21	
O=C(O)c1cc2ccccc2c(=O)s1 [Example 12, 2-Thiaisocoumarin-3-carboxylic acid]	0	22			inhibition at 25 mg/kg [2]: 4%; inhibition at 100 mg/kg [2]: 14%
Cc1c(C(=O)O)oc(=O)c2ccccc12 [Example 2, 4-Methylisocoumarin-3-carboxylic acid]	-3	41	0	10	
Cc1cccc2cc(C(=O)O)oc(=O)c12 [Example 3, 8-Methylisocoumarin-3-carboxylic acid]					inhibition at 25 mg/kg [5]: 44%; inhibition at 25 mg/kg [6]: 15%; inhibition at 100 mg/kg [5]: 66%; inhibition at 100 mg/kg [6]: 28%
O=C(O)c1cc2ccccc2c(=O)o1 [Example 1, Isocoumarin-3-carboxylic acid]	29	62	-13	16	
O=C(O)c1cc2ccc(Br)cc2c(=O)o1 [Example 6, 7-Bromoisocoumarin-3-carboxylic acid]	26	39			inhibition at 25 mg/kg [2]: 39%; inhibition at 100 mg/kg [2]: 0%
COc1ccc2cc(C(=O)O)oc(=O)c2c1 [Example 5, 7-Methoxyisocoumarin-3-carboxylic acid]	9	9			inhibition at 25 mg/kg [2]: 4%; inhibition at 100 mg/kg [2]: 55%
O=C(O)c1cc2ccccc2c(=O)[nH]1 [Example 9, Isocarbostyril-3-carboxylic acid]	21	36	15	25	
COc1cc2cc(C(=O)O)[nH]c(=O)c2cc1OC [Example 11, 6,7-Dimethoxyisocarbostyril-3-carboxylic acid]	11	38	2	17	
Cc1c(C(=O)O)oc(=O)c2c(C)cccc12 [Example 4, 4,8-Dimethylisocoumarin-3-carboxylic acid]	10	12	8	48	
